Experimental data as given in patent US11510902B2, “Method for preventing or treating non-alcoholic fatty liver disease by antrodins” (Simpson Biotech Co., Ltd., priority 2019, dated 2022).

Tests used:
Hep G2 cells [1] = assay: Free fatty acids (FFA)-induced lipid accumulation and Oil Red determination; format: cell-based, Human; conditions: Oil Red; for attenuated lipid accumulation in the cells: vs control group; for cellular lipid accumulation as compared with the control group: FIG. 2
Protocol: (§1) Human hepatoma cell line Hep G2 was cultured in Dulbecco's modified Eagle's medium high glucose (DMEM-HG) containing 10% fetal bovine serum, 100 U/ml penicillin and […] streptomycin at 37° C. under 5% CO2 in an incubator.
1×10^5 Hep G2 cells were seeded in a 96-well plate and incubated with serum-free cellular medium containing 1% BSA for 24 hrs. To induce lipid accumulation, the above cells were seeded in a mixture of 0.33 mM palmitic acid and 0.66 mM oleic acid for 24 hrs, which were dissolved in serum-free medium with or without Antrodin. After lipid accumulation and Antrodin treatment, cells were washed with PBS and then fixed by 4% paraformaldehyde for 15 mins at room temperature. The fixed cells were washed with PBS for 5 mins, and then rinsed with 60% isopropanol twice; followed by incubation with 1 ml Oil Red kit for 10 mins. For quantitative analysis of cellular lipids, dye in the cellular lipids were extracted with 0.5 ml of isopropanol, and then measured at 490 nm.

Hep G2 cells [2] = assay: Cell viability test (alamar blue); format: cell-based, Human; conditions: concentration less than 100 μg/ml, 72 hrs
Protocol: as §1
Hepasim® was a mixture from Antrodia cinnamomea mycelia, which was prepared from water or organic solvent extract of Antrodia cinnamomea mycelia. The extract of Antrodia cinnamomea mycelia comprised Antrodin B-E. 5×10^3 Hep G2 cells were seeded in a 96-well plate for 24 hrs, and then incubated with different concentrations of Hepasim®, Antrodin B, Antrodin C and Antrodin D for 72 hrs. After treatment, cells were incubated with alamar blue (10%, w/v) for 3 hrs, and then was read at […]. Cell viability was calculated by [(OD570−OD600)test/(OD570−OD600)control]×100.

[3] = test system: C57BL/6J (B6) mice on high fat diet; assay: High fat diet mice, treating process (20 weeks, dosing 11th to 20th week); format: in vivo; parameters: Malondiadehyde in liver: unit not given here; conditions: for body weight: 11th to 20th week, high fat diet 20 weeks; for reduction of body weight increasing rate as compared with the high fat diet group: at the end of 20 weeks; for ALT / AST / TC / TG / attenuated the increased ALT as compared with the high fat diet group / attenuated the increased AST as compared with the high fat diet group / attenuated the increased TC as compared with the high fat diet group / attenuated the increased TG as compared with the high fat diet group: serum; for ALT / AST / TC / TG / attenuated the increased ALT as compared with the high fat diet group / attenuated the increased AST as compared with the high fat diet group / attenuated the increased TC as compared with the high fat diet group / attenuated the increased TG as compared with the high fat diet group / MDA level increasing rate in liver / Malondiadehyde in liver / Plasma insulin / attenuated the increased blood sugar as compared with the high fat diet group / blood glucose / liver hypertrophy / liver weight / plasma insulin level increasing rate was reduced by / Plasma insulin increasing rate / body weight increasing rate / lipid droplets in the liver, hematoxylin-eosin staining of liver sections / MDA level increasing rate was reduced by / liver appearance: pale color (phenomenon of fatty liver): treating process; for Plasma insulin increasing rate / body weight increasing rate: relative to control group; for lipid droplets in the liver, hematoxylin-eosin staining of liver sections: FIG. 5; for MDA level increasing rate was reduced by: liver; for liver appearance: pale color (phenomenon of fatty liver): FIG. 4
Protocol: 2.1 8-week-old male C57BL/6J (B6) mice were used, which were purchased from the National Laboratory Animal Center (Taipei, Taiwan). All animals were maintained at an animal room at a temperature of 23±2° C., and 12 hrs light/12 hrs dark cycle.
According to the “Healthy food of liver health effects assessment” (Taiwan Food and Drug Administration, Taiwan), all 8-week test mice were randomized into a control group, a high fat diet group, and test (high fat diet with different dosage of Hepasim®, Antrodin B or Antrodin C) groups. Each group contained 3-4 mice.
The control group was given 20 weeks of normal diet, and all other groups were given 20 weeks of high fat diet. […] Body weights of the mice in each group were recorded weekly. At the end of 20 weeks, all mice were sacrificed by CO2 overdose. At the time of death of the mouse, blood was collected from the heart of the mouse. To separate the serum, whole blood was centrifuged in a refrigerated centrifuge at 15,700×g at 4° C. for 5 minutes. Livers were removed from the mice, and then rinsed in ice-cold saline. Liver samples were divided for various assays and histological assessment.
Stored liver samples (0.1 g) were homogenized in 1 ml PBS, and then was centrifuged in a refrigerated centrifuge at 15,700×g at 4° C. for 5 minutes to remove pellets. The levels of aspartate aminotransferase (AST), alanine aminotransferase (ALT), total cholesterol (TC) and total triglyceride (TG) of the serum and the liver were measured by corresponding detection kits (Randox). Blood sugar in whole blood was detected by blood sugar machine (Roche). Plasma insulin was detected by Insulin mouse ELISA kit (Invitrogen). Malondialdehyde (MDA) level in liver was measured by using Lipid Peroxidation Assay Kit (Colorimetric/Fluorometric) (abcam, #ab118977). Liver samples were divided for various assays and histological assessment.
The livers were removed from the mice, and then fixed in 10% neural formalin. Liver samples were dehydrated by placing in ethanol at different concentrations (30, 50, 70, 95, 99.5%) and xylene. Finally, liver samples were embedded in paraffin section. For hematoxylin-eosin staining, the liver tissue sections were placed in xylene for 30 minutes for dewaxing, and then sequentially placed in 99.5% ethanol for 10 minutes, 90% ethanol for 5 minutes, 70% ethanol for 1 minute, 50% ethanol for 1 minute and 30% ethanol for 1 minutes for rehydration, and then soaked in distilled water for 10 minutes. To stained nuclei, the samples were soaked in hematoxylin solution for 4 minutes, and then soaked in distilled water for several minutes, followed by soaking in eosin solution for 2 minutes to stain cytoplasm, and then washed in distilled water for 10 minutes. Finally, samples were sequentially placed in 90% ethanol for 2 minutes, 99.5% ethanol for 2 minutes and xylene for 20 minutes, and then mounted by mounting medium.
All results were expressed as mean±SD. Significant differences were analyzed with two-tailed Student's t-test. P<0.05 represents the statistical difference between two groups.

[4] = "10%" Antrodin (so in the source)
[5] = "30%" Antrodin (so in the source)
[6] = treated with "10%" Antrodin (so in the source)
[7] = treated with "30%" Antrodin (so in the source)

## CC(C)=CCOc1ccc(C2=C(CC(C)C)C(=O)N(O)C2=O)cc1 [Antrodin C, 3-isobutyl-4-[4-(3-methyl-2-butenyloxy)phenyl]-1H-pyrrol-1-ol-2,5-dione]
Hep G2 cells [1]; 10 μg/ml
  attenuated lipid accumulation in the cells: 20.6%
Hep G2 cells [1]; 100 μg/ml
  attenuated lipid accumulation in the cells: 24.1%
Hep G2 cells [1]
  cellular lipid accumulation as compared with the control group: significantly reduced
Hep G2 cells [2]
  cytotoxicity to Hep G2 cells: no cytotoxicity
[3]; 10 mg/Kg oral gavage every day
  body weight: 40.06 ± 4.74 g
[3]; 10 mg/Kg
  reduction of body weight increasing rate as compared with the high fat diet group: 4.5%
  ALT: 22.99 ± 5.15 U/l
  AST: 38.17 ± 5.53 U/l
  TC: 189.36 ± 58.12 mg/dL
  TG: 179.28 ± 15.54 mg/dL
  attenuated the increased ALT as compared with the high fat diet group: ~12.3%
  attenuated the increased AST as compared with the high fat diet group: ~39.35%
  attenuated the increased TC as compared with the high fat diet group: ~66.83%
  attenuated the increased TG as compared with the high fat diet group: ~11.57%
  MDA level increasing rate in liver: 140.8%
  Malondiadehyde in liver: 1.71 ± 0.59
  Plasma insulin: 1.77 ± 0.85 ng/mL
  attenuated the increased blood sugar as compared with the high fat diet group: about 34.78%
  blood glucose: 351.80 ± 85.00 mg/dL
  liver hypertrophy: significantly inhibited
  liver weight: 1.06 ± 0.25 g
  plasma insulin level increasing rate was reduced by: 81.8%
  Plasma insulin increasing rate: 221.8%
  body weight increasing rate: 30.6%
[3]; 30 mg/Kg oral gavage every day
  body weight: 37.50 ± 4.80 g
[3]; 30 mg/Kg
  reduction of body weight increasing rate as compared with the high fat diet group: 12.9%
  ALT: 17.61 ± 3.90 U/l
  AST: 32.33 ± 2.85 U/l
  TC: 171.86 ± 40.58 mg/dL
  TG: 170.63 ± 13.22 mg/dL
  attenuated the increased ALT as compared with the high fat diet group: ~48.96%
  attenuated the increased AST as compared with the high fat diet group: ~74.17%
  attenuated the increased TC as compared with the high fat diet group: ~86.26%
  attenuated the increased TG as compared with the high fat diet group: ~21.96%
  MDA level increasing rate in liver: 90.1%
  Malondiadehyde in liver: 1.35 ± 0.57
  Plasma insulin: 1.25 ± 0.71 ng/mL
  attenuated the increased blood sugar as compared with the high fat diet group: about 79.48%
  blood glucose: 298.60 ± 38.93 mg/dL
  liver hypertrophy: significantly inhibited
  liver weight: 1.05 ± 0.24 g
  plasma insulin level increasing rate was reduced by: 176.3%
  Plasma insulin increasing rate: 127.3%
  body weight increasing rate: 22.2%
[3]; [4]
  lipid droplets in the liver, hematoxylin-eosin staining of liver sections: significantly attenuated
[3]; [5]
  lipid droplets in the liver, hematoxylin-eosin staining of liver sections: significantly attenuated
[3]; [6]
  MDA level increasing rate was reduced by: 86%
[3]; [7]
  MDA level increasing rate was reduced by: 136.7%
[3]
  liver appearance: pale color (phenomenon of fatty liver): not observed

## CC(C)=CCOc1ccc([C@H]2C(=O)N(O)C(=O)[C@@H]2CC(C)C)cc1 (relative stereo) [Antrodin D, 3R*,4S*-1-hydroxy-3-isobutyl-4-[4-(3-methyl-2-butenyloxy)phenyl]pyrrolidine-2,5-dione]
Hep G2 cells [1]; 100 μg/ml
  attenuated lipid accumulation in the cells: 18.6%
Hep G2 cells [1]
  cellular lipid accumulation as compared with the control group: significantly reduced
Hep G2 cells [2]
  cytotoxicity to Hep G2 cells: no cytotoxicity

## CC(C)=CCOc1ccc(C2=C(CC(C)C)C(=O)NC2=O)cc1 [Antrodin B, 3-isobutyl-4-[4-(3-methyl-2-butenyloxy)phenyl]-1H-pyrrol-2,5-dione]
Hep G2 cells [1]; 10 μg/ml
  attenuated lipid accumulation in the cells: 12.8%
Hep G2 cells [1]; 100 μg/ml
  attenuated lipid accumulation in the cells: 9.3%
Hep G2 cells [1]
  cellular lipid accumulation as compared with the control group: significantly reduced
Hep G2 cells [2]
  cytotoxicity to Hep G2 cells: no cytotoxicity
[3]; 10 mg/Kg oral gavage every day
  body weight: 37.14 ± 5.18 g
[3]; 10 mg/Kg
  reduction of body weight increasing rate as compared with the high fat diet group: 14%
  ALT: 29.36 ± 6.17 U/l
  AST: 44.39 ± 7.06 U/l
  TC: 266.61 ± 25.99 mg/dL
  TG: 189.57 ± 9.35 mg/dL
  MDA level increasing rate in liver: 202.8%
  Malondiadehyde in liver: 2.15 ± 0.58
  Plasma insulin: 0.99 ± 0.41 ng/mL
  blood glucose: 367.20 ± 34.40 mg/dL
  liver hypertrophy: significantly inhibited
  liver weight: 1.39 ± 0.33 g
  plasma insulin level increasing rate was reduced by: 223.6%
  Plasma insulin increasing rate: 80%
  body weight increasing rate: 21.1%
[3]; 30 mg/Kg oral gavage every day
  body weight: 41.82 ± 2.61 g
[3]; 30 mg/Kg
  ALT: 29.38 ± 11.45 U/l
  AST: 53.64 ± 9.99 U/l
  TC: 287.73 ± 48.26 mg/dL
  TG: 187.77 ± 6.53 mg/dL
  MDA level increasing rate in liver: 97.2%
  Malondiadehyde in liver: 1.4 ± 0.56
  Plasma insulin: 1.84 ± 0.93 ng/mL
  blood glucose: 389.00 ± 41.63 mg/dL
  liver weight: 1.5 ± 0.25 g
  plasma insulin level increasing rate was reduced by: 69.1%
  Plasma insulin increasing rate: 234.5%
  body weight increasing rate: 36.3%
[3]; [4]
  lipid droplets in the liver, hematoxylin-eosin staining of liver sections: significantly attenuated
[3]; [5]
  lipid droplets in the liver, hematoxylin-eosin staining of liver sections: significantly attenuated
[3]; [6]
  MDA level increasing rate was reduced by: 24.8%
[3]; [7]
  MDA level increasing rate was reduced by: 129.6%
[3]
  liver appearance: pale color (phenomenon of fatty liver): not observed
